Results published in US10131652B2, “Pyrimidinyloxy benzene derivatives as herbicides” (E. I. DU PONT DE NEMOURS AND COMPANY, priority 2014, dated 2018).
Where two headings read alike, the source gives them in different places.

What was measured:
Assay type in all cases: in vivo
Horseweed = experiment: Test F postemergence plant response; conditions: scale 0 to 100
[1] = tested on: wild buckwheat (Polygonum convolvulus); experiment: Test E pre-/postemergence plant response; conditions: Fallopia convolvulus, scale 0 to 100, read-out: Plant response rating, Buckwheat, Wild; for pest or weed control at 16 g/ha: 16 g ai/ha; for pest or weed control at 31 g/ha: 31 g ai/ha; for pest or weed control at 62 g/ha: 62 g ai/ha; for pest or weed control at 125 g/ha: 125 g ai/ha
Outline: (§1)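 Pre-emergence: seeds sown in silt loam soil and sprayed with test chemicals in a non-phytotoxic solvent/surfactant mix. Post-emergence: plants at 2–18 cm (1- to 4-leaf stage) in peat/vermiculite medium treated with the same formulation. Visual rating versus controls after 7–21 days, 0 (no effect) to 100 (complete control).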

kochia (Kochia scoparia) = experiment: Test E pre-/postemergence plant response; conditions: Bassia scoparia, scale 0 to 100, read-out: Plant response rating, Kochia; for pest or weed control at 16 g/ha: 16 g ai/ha; for pest or weed control at 31 g/ha: 31 g ai/ha; for pest or weed control at 62 g/ha: 62 g ai/ha; for pest or weed control at 125 g/ha: 125 g ai/ha
Outline: as §1

wild oat (Avena fatua) = experiment: Test E pre-/postemergence plant response; conditions: scale 0 to 100, read-out: Plant response rating, Oat, Wild; for pest or weed control at 16 g/ha: 16 g ai/ha; for pest or weed control at 31 g/ha: 31 g ai/ha; for pest or weed control at 62 g/ha: 62 g ai/ha; for pest or weed control at 125 g/ha: 125 g ai/ha
Outline: as §1

[2] = tested on: oilseed rape (Brassica napus); experiment: Test E pre-/postemergence plant response; conditions: scale 0 to 100, read-out: Plant response rating, Oilseed Rape; for plant injury at 16 g/ha: 16 g ai/ha; for plant injury at 31 g/ha: 31 g ai/ha; for plant injury at 62 g/ha: 62 g ai/ha; for plant injury at 125 g/ha: 125 g ai/ha
Outline: as §1

| SMILES | pest or weed control at 16 g/ha ([1]; post-emergence, Postemergence) [%] | pest or weed control at 31 g/ha ([1]; post-emergence, Postemergence) [%] | pest or weed control at 62 g/ha ([1]; post-emergence, Postemergence) [%] | pest or weed control at 125 g/ha ([1]; post-emergence, Postemergence) [%] | pest or weed control at 16 g/ha ([1]; pre-emergence, Preemergence) [%] | pest or weed control at 31 g/ha ([1]; pre-emergence, Preemergence) [%] | pest or weed control at 62 g/ha ([1]; pre-emergence, Preemergence) [%] | pest or weed control at 125 g/ha ([1]; pre-emergence, Preemergence) [%] | pest or weed control at 16 g/ha (kochia (Kochia scoparia); post-emergence, Postemergence) [%] | pest or weed control at 31 g/ha (kochia (Kochia scoparia); post-emergence, Postemergence) [%] | pest or weed control at 62 g/ha (kochia (Kochia scoparia); post-emergence, Postemergence) [%] | pest or weed control at 125 g/ha (kochia (Kochia scoparia); post-emergence, Postemergence) [%] | pest or weed control at 16 g/ha (kochia (Kochia scoparia); pre-emergence, Preemergence) [%] | pest or weed control at 31 g/ha (kochia (Kochia scoparia); pre-emergence, Preemergence) [%] | pest or weed control at 62 g/ha (kochia (Kochia scoparia); pre-emergence, Preemergence) [%] | pest or weed control at 125 g/ha (kochia (Kochia scoparia); pre-emergence, Preemergence) [%] | pest or weed control at 16 g/ha (wild oat (Avena fatua); post-emergence, Postemergence) [%] | pest or weed control at 31 g/ha (wild oat (Avena fatua); post-emergence, Postemergence) [%] | pest or weed control at 62 g/ha (wild oat (Avena fatua); post-emergence, Postemergence) [%] | pest or weed control at 125 g/ha (wild oat (Avena fatua); post-emergence, Postemergence) [%] | also measured |
| --- | --- | --- | --- | --- | --- | --- | --- | --- | --- | --- | --- | --- | --- | --- | --- | --- | --- | --- | --- | --- | --- |
| Fc1ccc(Oc2ncc(Cl)cn2)c(-c2cc(C(F)F)on2)c1Cl [Compound 96] | – | – | – | – | – | – | – | – | – | – | – | – | – | – | – | – | – | – | – | – | Plant response rating, Horseweed (Horseweed; 16 g ai/ha Postemergence): 0; Plant response rating, Horseweed (Horseweed; 31 g ai/ha Postemergence): 0; Plant response rating, Horseweed (Horseweed; 62 g ai/ha Postemergence): 0; Plant response rating, Horseweed (Horseweed; 125 g ai/ha Postemergence): 10 |
| Fc1cccc(Oc2ncc(Cl)cn2)c1-c1cc(C(F)(F)F)on1 [Compound 168, 5-chloro-2-[2-[5-(trifluoromethyl)-3-isoxazolyl]-3-fluorophenoxy]pyrimidine] | 65 | 95 | 95 | 100 | 0 | 65 | 100 | 100 | 80 | 80 | 85 | 85 | 35 | 100 | 100 | 100 | 5 | 10 | 40 | 65 | pest or weed control at 16 g/ha (wild oat (Avena fatua); pre-emergence, Preemergence): 10%; pest or weed control at 31 g/ha (wild oat (Avena fatua); pre-emergence, Preemergence): 10%; pest or weed control at 62 g/ha (wild oat (Avena fatua); pre-emergence, Preemergence): 35%; pest or weed control at 125 g/ha (wild oat (Avena fatua); pre-emergence, Preemergence): 50%; plant injury at 16 g/ha ([2]; post-emergence, Postemergence): 70%; plant injury at 31 g/ha ([2]; post-emergence, Postemergence): 85%; plant injury at 62 g/ha ([2]; post-emergence, Postemergence): 95%; plant injury at 125 g/ha ([2]; post-emergence, Postemergence): 100%; plant injury at 16 g/ha ([2]; pre-emergence, Preemergence): 10%; plant injury at 31 g/ha ([2]; pre-emergence, Preemergence): 40%; plant injury at 62 g/ha ([2]; pre-emergence, Preemergence): 65%; plant injury at 125 g/ha ([2]; pre-emergence, Preemergence): 100% |
| FC(F)(F)c1cc(-c2ccccc2Oc2ncc(Cl)cn2)no1 [Compound 200, 5-chloro-2-[2-[5-(trifluoromethyl)-3-isoxazolyl]phenoxy]pyrimidine] | 65 | 70 | 95 | 100 | 65 | 75 | 100 | 100 | 70 | 85 | 85 | 90 | 70 | 100 | 100 | 100 | 10 | 20 | 30 | 35 | pest or weed control at 16 g/ha (wild oat (Avena fatua); pre-emergence, Preemergence): 0%; pest or weed control at 31 g/ha (wild oat (Avena fatua); pre-emergence, Preemergence): 0%; pest or weed control at 62 g/ha (wild oat (Avena fatua); pre-emergence, Preemergence): 30%; pest or weed control at 125 g/ha (wild oat (Avena fatua); pre-emergence, Preemergence): 75%; plant injury at 16 g/ha ([2]; post-emergence, Postemergence): 75%; plant injury at 31 g/ha ([2]; post-emergence, Postemergence): 85%; plant injury at 62 g/ha ([2]; post-emergence, Postemergence): 100%; plant injury at 125 g/ha ([2]; post-emergence, Postemergence): 100%; plant injury at 16 g/ha ([2]; pre-emergence, Preemergence): 60%; plant injury at 31 g/ha ([2]; pre-emergence, Preemergence): 100%; plant injury at 62 g/ha ([2]; pre-emergence, Preemergence): 100%; plant injury at 125 g/ha ([2]; pre-emergence, Preemergence): 100% |
| FC(F)c1cc(-c2ccccc2Oc2ncc(Br)cn2)no1 [Compound 62, 5-bromo-2-[2-[5-(difluoromethyl)-3-isoxazolyl]phenoxy]pyrimidine] | 75 | 80 | 95 | 100 | 25 | 35 | 80 | 100 | 65 | 75 | 90 | 95 | 0 | 5 | 85 | 100 | 15 | 25 | 35 | 60 | pest or weed control at 16 g/ha (wild oat (Avena fatua); pre-emergence, Preemergence): 0%; pest or weed control at 31 g/ha (wild oat (Avena fatua); pre-emergence, Preemergence): 10%; pest or weed control at 62 g/ha (wild oat (Avena fatua); pre-emergence, Preemergence): 15%; pest or weed control at 125 g/ha (wild oat (Avena fatua); pre-emergence, Preemergence): 20%; plant injury at 16 g/ha ([2]; post-emergence, Postemergence): 65%; plant injury at 31 g/ha ([2]; post-emergence, Postemergence): 80%; plant injury at 62 g/ha ([2]; post-emergence, Postemergence): 80%; plant injury at 125 g/ha ([2]; post-emergence, Postemergence): 100%; plant injury at 16 g/ha ([2]; pre-emergence, Preemergence): 10%; plant injury at 31 g/ha ([2]; pre-emergence, Preemergence): 25%; plant injury at 62 g/ha ([2]; pre-emergence, Preemergence): 65%; plant injury at 125 g/ha ([2]; pre-emergence, Preemergence): 100% |
